The data set in a line: recombinant barcode read abundance after kanamycin selection (control-corrected) (log10(CPM+1)); higher = more efficient recombination; sequences stand for … in AGTGCAGAGAAAATCGGCCAGTTTTCTCTGCCTGCAGTCCGCATGCCGT…AGATTTATGCAGCGGACTGCCTTTCTCCCAAAGTGATAAACCGGACAGTATCATGGACCGGTTTTCCCGGTAATCCGTATTTGCAAGGTTGGTTTCACT; site = the 11-nt target. In a few lines:
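For this pooled screen, each oligo contained a promoter, a target, a barcode and the J23119-driven first 104 bases of the bridge RNA. Gibson cloning placed it into a vector supplying the remaining 73 bp and a T7-inducible recombinase, and the pool was co-electroporated into E. coli with a donor plasmid. Recombination efficiency is derived from barcode counts per million at recombinant junctions after averaging and control correction, and is expressed on a log scale as log10(CPM+1), with selection on chloramphenicol/ampicillin/kanamycin plus 0.1 mM IPTG against a chloramphenicol/ampicillin LB agar control.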
For “TATTGGCCTTGGGTTCTAACCTGTTGCGT (site TATTGGCCTAC)”, the “recombinant barcode read abundance (log10)” value was 0.202.

On to “TATTTCTCTTGGGTTCTAACCTGTTGCCT (site AATTTCTCTAG)”, for which the “recombinant barcode read abundance (log10)” value worked out at 0.0527.

As to “TATTTCTCTTGGGTTCTAACCTGTTGCCT (site CATTTCTCTAG)”, the “recombinant barcode read abundance (log10)” value came to 0.0799. In the case of “TATTTCTCTTGGGTTCTAACCTGTTGCCT (site GATTTCTCTAG)”, the “recombinant barcode read abundance (log10)” value is 0.0942. In the case of “TATTTCTCTTGGGTTCTAACCTGTTGCCT (site TATTTCTCTAG)” it was 0.157; in that of “TATTTGCCTTGGGTTCTAACCTGTTGCTG (site GCACCTGCTAG)”, 0.183.

For the sequence “TATTTGCCTTGGGTTCTAACCTGTTGCTG (site TATTTGCCTCA)”, the “recombinant barcode read abundance (log10)” value was 0.0916. As for “TCAAAGCCTTGGGTTCTAACCTGTTGCTG (site TCAAAGCCTCA)”, the figure is 0.252; as for “TCAAAGCCTTGGGTTCTAACCTGTTGCTG (site TCACAGCCTCA)”, 0.204; as for “TCAAAGCCTTGGGTTCTAACCTGTTGCTG (site TCAGAGCCTCA)”, 0.372. In the case of “TCAAAGCCTTGGGTTCTAACCTGTTGCTG (site TCATAGCCTCA)”, the “recombinant barcode read abundance (log10)” value worked out at 0.217. In the case of “TCAAGACCTTGGGTTCTAACCTGTTGCCT (site TCAAGACCTAG)” it was 0.617. In the case of “TCAAGACCTTGGGTTCTAACCTGTTGCCT (site TCAAGACCTCG)” it was 0.0935; in that of “TCACAGCCTTGGGTTCTAACCTGTTGCTG (site TCAAAGCCTCA)”, 0.106; in that of “TCACAGCCTTGGGTTCTAACCTGTTGCTG (site TCACAGCCTCA)”, 0.476. With “TCACAGCCTTGGGTTCTAACCTGTTGCTG (site TCAGAGCCTCA)”, the “recombinant barcode read abundance (log10)” value is 0.176. Regarding “TCACAGCCTTGGGTTCTAACCTGTTGCTG (site TCATAGCCTCA)”, the “recombinant barcode read abundance (log10)” value amounted to 0.178. In the case of “TCACAGTCTTGGGTTCTAACCTGTTGCCT (site TAACACTCTAG)” it was 0.0324. In the case of “TCACAGTCTTGGGTTCTAACCTGTTGCCT (site TCACAGTCTAG)” it was 1.59; in that of “TCACATGCTTGGGTTCTAACCTGTTGCCT (site TCACATGCTAG)”, 1.28. In the case of “TCACATGCTTGGGTTCTAACCTGTTGCCT (site TCACCTGCTAG)” it was 0.0279. Consider “TCACATGCTTGGGTTCTAACCTGTTGCCT (site TCACGTGCTAG)”, for which the “recombinant barcode read abundance (log10)” value amounted to 0.179. In the case of “TCACATGCTTGGGTTCTAACCTGTTGCCT (site TCACTTGCTAG)” it was 0.119; in that of “TCACATTCTTGGGTTCTAACCTGTTGCCT (site TCAAATTCTAG)”, 0.228.

In the case of “TCACATTCTTGGGTTCTAACCTGTTGCCT (site TCACATTCTAG)”, the “recombinant barcode read abundance (log10)” value is 0.31.

Turning to “TCACATTCTTGGGTTCTAACCTGTTGCCT (site TCAGATTCTAG)”, the “recombinant barcode read abundance (log10)” value is 0.183.

In the case of “TCACATTCTTGGGTTCTAACCTGTTGCCT (site TCATATTCTAG)”, the “recombinant barcode read abundance (log10)” value amounted to 0.155. In the case of “TCAGAGCCTTGGGTTCTAACCTGTTGCTG (site TCAAAGCCTCA)” it was 0.025; in that of “TCAGAGCCTTGGGTTCTAACCTGTTGCTG (site TCACAGCCTCA)”, 0.0728. As for “TCAGAGCCTTGGGTTCTAACCTGTTGCTG (site TCAGAGCCTCA)”, the figure is 1.28; as for “TCAGAGCCTTGGGTTCTAACCTGTTGCTG (site TCATAGCCTCA)”, 0.0059; as for “TCAGGAGCTTGGGTTCTAACCTGTTGCAG (site TCAGGAGCTCC)”, 0.0921.
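Note: IS621 recombinase and bridge RNA in Escherichia coli cells.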
